Results on 3 molecules are retold here after publication PMC10154516, “Potential profound fluctuation in tacrolimus concentration on consumption of pomegranate rind extract: A Pharmacokinetic Experiment” (Frontiers in Pharmacology, 2023).

One series deals with T1, CYP3A4 (Homo sapiens, UniProt P08684).
T1 construct: purchased BioVision Inc. K702-200
Briefly: CYP3A4 inhibitory in vitro assay (fluorometric inhibitor screening kit). The settings on record: for inhibition at 150 µM: Concentration 150 (unit inferred); for inhibition at 200 µM: Concentration 200 (unit inferred). Type of series: biochemical. The procedure:
Briefly, incubations were conducted in a reaction volume of 200 μl/well in a 96-well microliter plate. For the calibration curve, resorufin (standard) was plotted by taking different concentrations (0, 4, 8, 12, 16, 20, 30, and 40 µl) of the 1 pmol/μl of the standard available in the kit. One mole of resorufin corresponds to the metabolism of 1 mol of the CYP3A4 substrate. […] The corresponding percentage inhibition due to the test ligand or positive inhibition control was calculated. CYP3A4 activities observed with punicalagin at varying concentrations (50,100, 150, 200, 250, and 300 µM) were noted down ([Hidaka et al., 2005]; [Faria et al., 2007]). The concentration at which 50% of the CYP3A4 activity is inhibited (IC50) was noted down. The logarithm values were plotted onto the graphs. Each compound was tested in triplicates. Inhibition curves were plotted from the log values of the concentration of the samples vs. the percentage inhibition calculated.

Series [1] is described as follows: Pharmacokinetics of TAC in Wistar rats with and without oral PRE (LC-MS/MS of plasma). The series is classed as in vivo. The protocol: The assessment of TAC in all the samples was done with the help of the LC-MS/MS method. Samples were prepared following the method stated by [Shokati et al. (2015)]. After the preparation of samples, the supernatant was then used further for investigation. An aliquot of 10 μL was injected into the LC-MS/MS system. The column used for analysis was Eclipse XDB C-18 with 100 mm × […] × 3.5 um) with a flow rate of 1.5 ml/min (LC flow split to MS as 0.45 ml/min). The mobile phase used was a mixture of solvent A (acetonitrile) and solvent B (ammonium acetate in water) including 0.1% formic acid in a ratio of 95:05 v/v with a run time of 2 min isocratic (Supplementary Table S2. The compounds were detected by tandem mass spectrometry using electrospray ionization in the positive mode and using ion transitions m/z 821.5 -> 768.0 for TAC (standard) and m/z 721.1 -> 296.1 for ritonavir (internal standard).
Extraction of the drug from the plasma was carried out by the precipitation method. An aliquot of drug-free plasma spiked with 50 μl of ZnSO4 solution and 300 μl of methanol/acetonitrile (50:50, v/v) including IS was added. The mixture was vortex mixed for 30 s and centrifuged at 14,000 g (2000 rpm) at […] for 5 min. The supernatant solution was separated and filtered through a 0.45-µ membrane filter and stored at −20°C until use for analysis. The aforementioned extraction procedure was followed for all plasma samples, calibration curve samples, and QC samples. The optimization of the extraction procedure was required to reduce variation in the area of IS and improve injection to injection reproducibility. The schematic flow chart for the extraction procedure is depicted in Figure 1.
TAC (3 mg/kg) was administered orally to experimental rats (N = 6), and in another group, PRE at a dosage of 200 mg/kg was orally co-administered with TAC dosage of 3 mg/kg in a similar manner to six rats. Both groups were given a volume of 10 ml/kg which was a single dose to all animals. Blood samples were drawn at regular intervals, and the blood plasma concentration of TAC was assessed with the help of the validated LC-MS/MS technique ([Sattler et al., 1992]; [Alanbaki et al., 2019]).
Pretreatment of PRE (200 mg/kg) for a period of six consecutive days was done in group 2, and afterward, on the 7th day, in group 2, PRE (200 mg/kg) was co-administered with TAC (3 mg/kg) to experimental animals (N = 6). In group 1, a single dose of TAC (3 mg/kg) was administered to the animals at a volume of 10 ml/kg body weight.
To study the dose–effect relationship, the Wistar rats were equally distributed into five groups (N = 6 rats/group). PRE at a dose of 100, 200, 400, and 800 mg/kg was given by oral route to the rats, co-administrated with TAC (3 mg/kg). The drug TAC at a dose of 3 mg/kg was given similarly to all the rats in another group, with a volume of 10 ml/kg body weight. Blood was collected from the retro-orbital plexus, and the plasma samples were separated.
The experimental animals were fasted for 12 h before the collection of blood. A total of 300 μL of blood were collected in Eppendorf tubes containing heparinized solution at different time intervals (0, 0.5, 1.0, 2.0, 4.0, 8.0, 12, and 24 h). Plasma was separated and approximately 100 μl of samples was pipetted in the tubes (Figure 2). A total of 300 μl of methanol/acetonitrile (50:50, v/v) and 50 μl of ZnSO4 solution were added, and the solution was vortexed for 30 s and centrifuged at 14,000 g (2000 rpm) for 10 min (Figure 2). All the samples were stored at −20°C until further analysis ([Anlamlert and Sermsappasuk, 2020]).
Pharmacokinetic parameters such as time to reach the maximum concentration (Tmax) and Cmax of TAC were read from the […] (observed blood concentration vs. time profile). AUC0-12 was calculated with the help of a linear trapezoidal rule (Drug and Statistics (DAS) software version 2.1.1). […]

Where [2] appears, read: human, probe kit CYP3A4 substrate metabolised to resorufin (not named), read-out: % Relative Inhibition.

T1 sequence (P08684 whole entry): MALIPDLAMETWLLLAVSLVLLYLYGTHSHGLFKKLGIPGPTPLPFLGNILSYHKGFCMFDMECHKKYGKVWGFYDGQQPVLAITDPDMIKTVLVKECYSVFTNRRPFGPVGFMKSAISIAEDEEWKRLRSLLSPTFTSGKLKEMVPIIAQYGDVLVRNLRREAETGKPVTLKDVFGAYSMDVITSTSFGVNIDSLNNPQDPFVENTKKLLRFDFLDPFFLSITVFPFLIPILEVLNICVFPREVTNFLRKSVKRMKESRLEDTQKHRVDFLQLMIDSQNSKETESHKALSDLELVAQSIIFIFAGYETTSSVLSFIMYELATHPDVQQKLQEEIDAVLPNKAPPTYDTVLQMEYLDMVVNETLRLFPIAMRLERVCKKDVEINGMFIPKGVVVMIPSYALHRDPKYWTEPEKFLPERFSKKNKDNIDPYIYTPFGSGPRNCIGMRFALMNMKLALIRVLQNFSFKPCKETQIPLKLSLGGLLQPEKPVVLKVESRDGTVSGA

In the case of `O=C1O[C@H]2[C@@H]3OC(=O)c4cc(O)c(O)c(O)c4-c4c(O)c(O)c5oc(=O)c6c(c(O)c(O)c7oc(=O)c4c5c76)-c4c(cc(O)c(O)c4O)C(=O)OC[C@H]3OC(O)[C@@H]2OC(=O)c2cc(O)c(O)c(O)c2-c2c1cc(O)c(O)c2O` (mixture of isomers) [Punicalagin], at CYP3A4 (human, probe kit CYP3A4 substrate metabolised to resorufin (not named), Concentration 50 (unit inferred), read-out: % Relative Inhibition), the inhibition at 50 µM was 89.1%. Further, the inhibition at 100 µM at CYP3A4 (human, probe kit CYP3A4 substrate metabolised to resorufin (not named), Concentration 100 (unit inferred), read-out: % Relative Inhibition) turned out to be 76.2%. Besides, at CYP3A4 (setting [2]), the inhibition at 150 µM was determined as 64.5% and the inhibition at 200 µM was determined as 52.5%. The inhibition at 250 µM on CYP3A4 (human, probe kit CYP3A4 substrate metabolised to resorufin (not named), Concentration 250 (unit inferred), read-out: % Relative Inhibition) was 35.2%. The inhibition at 300 µM on CYP3A4 (human, probe kit CYP3A4 substrate metabolised to resorufin (not named), Concentration 300 (unit inferred), read-out: % Relative Inhibition) stood at 11.4%. For the same molecule, the CYP3A4 inhibitory activity entry at CYP3A4 (varied concentrations) is “exhibits CYP3A4 inhibitory activity”.
`CC(=O)N1CCN(c2ccc(OCC3COC(Cn4ccnc4)(c4ccc(Cl)cc4Cl)O3)cc2)CC1` (centres unmarked) [Ketoconazole]: on CYP3A4 (setting [2]), the inhibition at 150 µM was 72.5% and the inhibition at 200 µM came to 55%.
For the molecule `C=CC[C@@H]1/C=C(\C)C[C@H](C)C[C@H](OC)[C@H]2O[C@@](O)(C(=O)C(=O)N3CCCC[C@H]3C(=O)O[C@H](/C(C)=C/[C@@H]3CC[C@@H](O)[C@H](OC)C3)[C@H](C)[C@@H](O)CC1=O)[C@H](C)C[C@@H]2OC` [TAC, Tacrolimus], the “Mean plasma concentration of TAC” value in series [1] (TAC 3 mg/kg co-administered with PRE 800 mg/kg, multiple-dose study) is given as “does not increase”. The “AUC0-12 of TAC” value in series [1] (TAC 3 mg/kg co-administered with PRE 100, 200, 400, 800 mg/kg) was “increased with an increase in PRE doses”. Besides, in series [1] (TAC 3 mg/kg co-administered with PRE 100 to 400 mg/kg, multiple-dose study), the “Average plasma concentration of TAC” value is listed as “increases with an increase in PRE dose”. The “t1/2 of TAC” value in series [1] (TAC 3 mg/kg co-administered with PRE varied doses) is “prolonged”. Besides, the “AUC0-inf of TAC” value in series [1] (TAC 3 mg/kg p.o. alone) is on record as 61.91 ± 17.37 ngh/ml. This molecule also returned a Cmax in series [1] (Wistar, po, TAC 3 mg/kg p.o. alone, rat plasma) of 9.03 ± 1.21 ng/mL. In addition, the time of peak concentration (Tmax) in series [1] (Wistar, rat, plasma, po, TAC 3 mg/kg p.o. alone) turned out to be 54.6 ± 10.8 min. Also, in series [1] (Wistar, rat, plasma, po, TAC 3 mg/kg p.o. alone, read-out: t1/2 of TAC (converted)), the half-life was 7.2 ± 2.4 min.
